Source: US8044035B2, “Pharmaceutical compositions of pyrimidine-2,4,6-triones” (priority 2004, dated 2011)
In brackets after ≈: the same amount, converted by molar mass. Like-named read-outs stand apart in the source and are kept apart here.

Key:
[1] = Phase solubility studies of Compound I with cyclodextrins (excess compound, 7 days, 37° C., HPLC); type: physicochemical; details: for solubility at 7 days: 37 °C, thermodynamic from solid
Description: At the time of a complex formation, compound I, practically insoluble in water (<0.6 μg/ml, MW: 485), solubilizes dramatically. The increase in the solubility of compound I is thus proof of a complex formation between Compound I and the CD. Complex formation and achievement of the equilibrium is found at 20% after 1 day, 40% after 4 days, and 100% after 7 days. The solubility diagrams (FIG. 1) are carried out by adding an excess of compound I to the CD solutions of increasing concentration. After 7 days of stirring in thermostatically controlled baths at 37° C., these solutions are filtered and the solubilized compound I quantity is dosed by HPLC. The βCD and the γCD as well as their synthetic derivatives have allowed complexes with compound I to be formed. The β-CD and the HPβCD come from ROQUETTE (France), the RMβCD and the γCD have been supplied by Wacker (Germany).
The flasks containing compound I and the cyclodextrins are placed being stirred in thermostatically controlled baths at 37° C. for 7 days, so that the complexation balance is reached. After this time, the suspensions are filtered with the help of a milli-pore filter 0.22 μm in PVDF and the filtrate is dissolved in DMSO in the mobile phase to obtain concentration samples situating themselves on the calibrating line. They are then dosed thanks to the validated HPLC method, described below.
Mobile phase: mixture of phosphate buffer 0.05 M to pH=3 and methanol (30/70, v/v). Gas is extracted by an ultrasound passage for 15 minutes, output: 1 ml/min, λ of U.V. detection: 265 nm, Working temperature: 30° C., Injection volume: 20 μl.
The results of the HPLC dosages of Compound I are reproduced in the tables below (Tables 1 to 4) for each cyclodextrin.

[2] = system: aorta ring, formation of new vessels (angiogenesis); assay: Aorta ring model of neovascularisation (inhibition of angiogenesis); type: cell-based; details: aorta ring in culture medium, final concentration 10^−6 M, 10^−7 M
From the text: In order to study the potential effects of the complex Compound I-cyclodextrine, a model of neovascularisation has been used. An aorta ring is cut and placed in a culture medium. This culture medium containing either: • no active principle • the complex compound I-cyclodextrins (final concentration 10-^6M, 10^−7M) • compound I dissolved in DMSO with the help of […] (final concentration 10-^6, 10-^7M).

O=C1NC(=O)C(c2ccc(-c3ccccc3)cc2)(N2CCN(c3ccc([N+](=O)[O-])cc3)CC2)C(=O)N1 [Compound I, 5-Biphenyl-4-yl-5-[4-(4-nitro-phenyl)-piperazin-1-yl]pyrimidine-2,4,6-trione]
solubility at 7 days ([1]; HPβCD solution, aqueous with cosolvent or surfactant or cyclodextrin, HPβCD, maximum concentration used 200 mM, read-out: Maximum solubility): 4960 µg/mL (≈ 10200 µM) | Concentration of Compound I (solubility) ([1]; RMβCD 10 mM, 37° C., 7 days): 120.6 µg/mL | solubility at 7 days ([1]; RMβCD solution, aqueous with cosolvent or surfactant or cyclodextrin, RMβCD, maximum concentration used 200 mM, read-out: Maximum solubility): 11900 µg/mL (≈ 24600 µM) | Complex formation and achievement of the equilibrium ([1]; after 1 day): 20% | Complex formation and achievement of the equilibrium ([1]; after 4 days): 40% | Complex formation and achievement of the equilibrium ([1]; after 7 days): 100% | K1:1 (stability constant) ([1]; complex with HP-βCD): 12575 M⁻¹ | K1:2 (stability constant) ([1]; complex with HP-βCD): 14.4 M⁻¹ | K1:1 (stability constant) ([1]; complex with RMβCD): 27595 M⁻¹ | K1:2 (stability constant) ([1]; complex with RMβCD): 22.88 M⁻¹ | K1:1 (stability constant) ([1]; complex with βCD): 2092 M⁻¹ | K1:1 (stability constant) ([1]; complex with γCD): 346 M⁻¹ | solubility at 7 days ([1]; cyclodextrin solution, aqueous with cosolvent or surfactant or cyclodextrin, HPβCD 10 mM, 37° C., 7 days, read-out: Concentration of Compound I (solubility)): 188 µg/mL (≈ 387 µM) | solubility at 7 days ([1]; cyclodextrin solution, aqueous with cosolvent or surfactant or cyclodextrin, HPβCD 25 mM, 37° C., 7 days, read-out: Concentration of Compound I (solubility)): 213 µg/mL (≈ 440 µM) | solubility at 7 days ([1]; cyclodextrin solution, aqueous with cosolvent or surfactant or cyclodextrin, HPβCD 50 mM, 37° C., 7 days, read-out: Concentration of Compound I (solubility)): 236 µg/mL (≈ 486 µM) | solubility at 7 days ([1]; cyclodextrin solution, aqueous with cosolvent or surfactant or cyclodextrin, HPβCD 75 mM, 37° C., 7 days, read-out: Concentration of Compound I (solubility)): 1130 µg/mL (≈ 2330 µM) | solubility at 7 days ([1]; cyclodextrin solution, aqueous with cosolvent or surfactant or cyclodextrin, HPβCD 100 mM, 37° C., 7 days, read-out: Concentration of Compound I (solubility)): 1660 µg/mL (≈ 3430 µM) | solubility at 7 days ([1]; cyclodextrin solution, aqueous with cosolvent or surfactant or cyclodextrin, HPβCD 150 mM, 37° C., 7 days, read-out: Concentration of Compound I (solubility)): 3110 µg/mL (≈ 6400 µM) | solubility at 7 days ([1]; cyclodextrin solution, aqueous with cosolvent or surfactant or cyclodextrin, HPβCD 200 mM, 37° C., 7 days, read-out: Concentration of Compound I (solubility)): 4960 µg/mL (≈ 10200 µM) | solubility at 7 days ([1]; cyclodextrin solution, aqueous with cosolvent or surfactant or cyclodextrin, RMβCD 25 mM, 37° C., 7 days, read-out: Concentration of Compound I (solubility)): 527 µg/mL (≈ 1080 µM) | solubility at 7 days ([1]; cyclodextrin solution, aqueous with cosolvent or surfactant or cyclodextrin, RMβCD 50 mM, 37° C., 7 days, read-out: Concentration of Compound I (solubility)): 1530 µg/mL (≈ 3150 µM) | solubility at 7 days ([1]; cyclodextrin solution, aqueous with cosolvent or surfactant or cyclodextrin, RMβCD 75 mM, 37° C., 7 days, read-out: Concentration of Compound I (solubility)): 3010 µg/mL (≈ 6200 µM) | solubility at 7 days ([1]; cyclodextrin solution, aqueous with cosolvent or surfactant or cyclodextrin, RMβCD 100 mM, 37° C., 7 days, read-out: Concentration of Compound I (solubility)): 4680 µg/mL (≈ 9630 µM) | solubility at 7 days ([1]; cyclodextrin solution, aqueous with cosolvent or surfactant or cyclodextrin, RMβCD 150 mM, 37° C., 7 days, read-out: Concentration of Compound I (solubility)): 8320 µg/mL (≈ 17100 µM) | solubility at 7 days ([1]; cyclodextrin solution, aqueous with cosolvent or surfactant or cyclodextrin, RMβCD 200 mM, 37° C., 7 days, read-out: Concentration of Compound I (solubility)): 12000 µg/mL (≈ 24600 µM) | solubility at 7 days ([1]; cyclodextrin solution, aqueous with cosolvent or surfactant or cyclodextrin, concentrations above 8 mM βCD, read-out: Solubility of additional complex of 1:2 stoichiometry (Cpd. I: βCD)): 1.5 µg/mL (≈ 3.09 µM) | solubility at 7 days ([1]; cyclodextrin solution, aqueous with cosolvent or surfactant or cyclodextrin, in the presence of HPβCD, CD 2 mM, 37° C., 7 days, read-out: Concentration of Compound I (solubility)): 2.4 µg/mL | solubility at 7 days ([1]; cyclodextrin solution, aqueous with cosolvent or surfactant or cyclodextrin, in the presence of HPβCD, CD 4 mM, 37° C., 7 days, read-out: Concentration of Compound I (solubility)): 6.8 µg/mL | solubility at 7 days ([1]; cyclodextrin solution, aqueous with cosolvent or surfactant or cyclodextrin, in the presence of HPβCD, CD 8 mM, 37° C., 7 days, read-out: Concentration of Compound I (solubility)): 6.6 µg/mL | solubility at 7 days ([1]; cyclodextrin solution, aqueous with cosolvent or surfactant or cyclodextrin, in the presence of HPβCD, CD 10 mM, 37° C., 7 days, read-out: Concentration of Compound I (solubility)): 3.4 µg/mL | solubility at 7 days ([1]; cyclodextrin solution, aqueous with cosolvent or surfactant or cyclodextrin, in the presence of HPβCD, CD 12 mM, 37° C., 7 days, read-out: Concentration of Compound I (solubility)): 1.6 µg/mL | solubility at 7 days ([1]; cyclodextrin solution, aqueous with cosolvent or surfactant or cyclodextrin, in the presence of HPβCD, CD 16 mM, 37° C., 7 days, read-out: Concentration of Compound I (solubility)): 1.5 µg/mL | solubility at 7 days ([1]; cyclodextrin solution, aqueous with cosolvent or surfactant or cyclodextrin, γCD 10 mM, 37° C., 7 days, read-out: Concentration of Compound I (solubility)): 1.3 µg/mL (≈ 2.68 µM) | solubility at 7 days ([1]; cyclodextrin solution, aqueous with cosolvent or surfactant or cyclodextrin, γCD 100 mM, 37° C., 7 days, read-out: Concentration of Compound I (solubility)): 19.5 µg/mL (≈ 40.2 µM) | solubility at 7 days ([1]; cyclodextrin solution, aqueous with cosolvent or surfactant or cyclodextrin, γCD 200 mM, 37° C., 7 days, read-out: Concentration of Compound I (solubility)): 29.1 µg/mL (≈ 59.9 µM) | solubility at 7 days ([1]; water without cyclodextrin, water, without cyclodextrin, read-out: Solubility in water): < 0.6 µg/mL | solubility at 7 days ([1]; βCD solution, aqueous with cosolvent or surfactant or cyclodextrin, βCD, maximum concentration used 4 mM, read-out: Maximum solubility): 6.8 µg/mL (≈ 14 µM) | solubility at 7 days ([1]; γCD solution, aqueous with cosolvent or surfactant or cyclodextrin, γCD 25 mM, 37° C., 7 days, read-out: Concentration of Compound I (solubility)): 3.2 µg/mL (≈ 6.59 µM) | solubility at 7 days ([1]; γCD solution, aqueous with cosolvent or surfactant or cyclodextrin, γCD 50 mM, 37° C., 7 days, read-out: Concentration of Compound I (solubility)): 11.4 µg/mL (≈ 23.5 µM) | solubility at 7 days ([1]; γCD solution, aqueous with cosolvent or surfactant or cyclodextrin, γCD 75 mM, 37° C., 7 days, read-out: Concentration of Compound I (solubility)): 13.6 µg/mL (≈ 28 µM) | solubility at 7 days ([1]; γCD solution, aqueous with cosolvent or surfactant or cyclodextrin, γCD, maximum concentration used 200 mM, read-out: Maximum solubility): 29.1 µg/mL (≈ 59.9 µM) | Angiogenesis (formation of new vessels) [2]: inhibited significantly
